The results in this text go back to ChEMBL document CHEMBL1201862, “PubChem BioAssay data set” (2004).

Common to all, as to assay: NCI anticancer screen, dose series, 48 h
Experiment [1] relates to RXF 393.
Experiment [2] relates to SF-268.
Experiment [3] relates to CCRF-CEM.
Experiment [4] deals with HT-29.
For experiment [5], the system named is SK-MEL-5.
Experiment [6] deals with HOP-62.
Experiment [7] concerns SN12C.
The subject of experiment [8] is IGROV-1.
Experiment [9] relates to OVCAR-4.
In experiment [10] the test system is NCI-H226.
The test system of experiment [11] is LOX IMVI.
Experiment [12] relates to SK-MEL-28.
For experiment [13], the system named is NCI-H23.
For experiment [14], the system named is MDA-N.
The test system of experiment [15] is HCT-15.
In experiment [16] the test system is SW-620.
Experiment [17] has as its system HL-60.
Experiment [18] relates to Malme-3M.

The structures appear in SMILES notation.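 Method: 48-hour compound exposure of cells in 96-well plates, five concentrations, linear interpolation of endpoints. GI50: concentration for 50% inhibition of growth.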 The source made the active and inactive calls. Cut-off read from the data, not from the text of the source: active = GI50 up to about 1.1 µM and inactive = higher.

For the molecule `COC(=O)/C=C\C(C#N)(C#N)/N=C/c1ccc(C)cc1`, the GI50 in experiment [1] is 1.9 µM (inactive); in [2], 3.78 µM (inactive); in experiment [3], 0.0673 µM (active); in [4] it was 3.8 µM (inactive); in [5], 12.6 µM (inactive); in experiment [6], 19.3 µM (inactive). The GI50 was 13.2 µM (inactive) in [7]; 13.1 µM (inactive) in experiment [8]; 3.89 µM (inactive) in experiment [9]; 8.75 µM (inactive) in experiment [10]; 2.33 µM (inactive) in experiment [11]; 5.5 µM (inactive) in experiment [12]. In addition, the GI50 in [13] was 5.57 µM (inactive); in [14], 4.06 µM (inactive); in [15], 2.56 µM; in experiment [16], 1.95 µM (inactive); in experiment [17], 2.52 µM (inactive); in experiment [18], 2.28 µM (inactive).

In the case of `O=c1oc2ncccc2n1Cc1ccc([N+](=O)[O-])cc1`, the GI50 in experiment [1], in [2], in [3], in experiment [4], in [5] and in experiment [6] was > 100 µM (inactive) throughout. In addition, the GI50 in [7], in experiment [8], in experiment [9], in experiment [10], in [11] and in experiment [12] was > 100 µM (inactive) throughout. For the same molecule, the GI50 in experiment [13] is > 100 µM (inactive); in [14] it was > 100 µM (inactive); in experiment [15], over 100 µM; in [16], > 100 µM (inactive); in experiment [17], > 100 µM (inactive); in [18], > 100 µM (inactive).

On to `COc1cc(/C=C/c2ccnc3ccccc23)cc(OC)c1OC`, for which the GI50 was 1.63 µM (inactive) in experiment [1]; 3.39 µM (inactive) in [2]; 2.09 µM (inactive) in experiment [3]; 1.28 µM (inactive) in experiment [4]; 2.45 µM (inactive) in [5]; 7.16 µM (inactive) in experiment [6]. Also, the GI50 is 3.56 µM (inactive) in [7]; 3.66 µM (inactive) in [8]; 1.81 µM (inactive) in [9]; 5.04 µM (inactive) in experiment [10]; 4.63 µM (inactive) in experiment [11]; 3.08 µM (inactive) in experiment [12]. Moreover, the GI50 in experiment [13] is 1.66 µM (inactive); in experiment [14], 0.351 µM (active); in experiment [15], 2.56 µM; in experiment [16], 4.93 µM (inactive); in [17], 0.416 µM (active); in [18] it was 2.98 µM (inactive).

Turning to `COc1cc(/C=C2/SC(c3ccccc3)N(c3cc(Cl)ccc3Cl)C2=O)cc(OC)c1OC` (stereo unspecified), the GI50 in [1] is 45.8 µM (inactive); in experiment [3], 38.5 µM (inactive); in experiment [4], > 100 µM (inactive); in experiment [5] it was 59.7 µM (inactive); in experiment [6] it was > 100 µM (inactive); in experiment [7], > 100 µM (inactive). Also, the GI50 in [8] is 44.9 µM (inactive); in [9] it was 49.8 µM (inactive); in experiment [10], > 100 µM (inactive); in experiment [11], 67.6 µM (inactive); in experiment [12], 87.7 µM (inactive); in experiment [13], > 100 µM (inactive). The GI50 in experiment [14] is 19.1 µM (inactive); in experiment [15], 50.6 µM; in experiment [16], 49.9 µM (inactive); in experiment [17] it was 51.9 µM (inactive); in experiment [18] it was 62.8 µM (inactive).
